# Laboratory results from US20060229261A1 (priority 2005, published 2006).
# What was measured:
# [1] = system: patients with chronic constipation; conditions: two trials versus placebo; cited from earlier work
# [2] = primarily as inactive metabolites; cited from earlier work
# [3] = system: patients with functional constipation; assay: Randomized, dose escalation, placebo controlled clinical study; assay type: in vivo, human; conditions: daily diaries, dose escalation phase (25, 50, 100 mg once daily)
# Text: A randomized, dose escalation, placebo controlled study is designed to assess the efficacy of the administered formulation in 60 to 120 patients with functional constipation, defined using the Rome II criteria (modified), i.e., at least […] of two or more of the following symptoms: • i. Straining in >25% of defecations; • ii. Lumpy or hard stools in >25% of defecations; • iii. Sensation of incomplete evacuation in >25% of defecations; • iv. Sensation of anorectal obstruction/blockage in >25% of defecations; • v. Manual maneuvers to facilitate >25%, of defecations (e.g. digital evacuation, support of pelvic floor); and/or • vi. <3 evacuations per week. In addition, loose stools are not present, and there are insufficient criteria for a diagnosis of IBS. Moreover, these patients have no evidence of medical disorders that may cause constipation. Patients are symptomatic on entry in the randomization phase of the study, i.e., in the 8-14 day run-in period, on at least 8 days, which need not be consecutive, patients have lumpy or hard stools in >25% of defecations.
# Patients are randomized to one of three groups:
# Patients randomized to receive treatments a) or b) will receive 25 mg once daily for the first four weeks, 50 mg once daily for the following four weeks and 100 mg once daily for a further four weeks, providing the previous dose was well tolerated. […]
# [4] = system: women patients with IBS-C; conditions: 6 mg twice daily; cited from earlier work
structure (smiles),measurement,setting,value
OC[C@H]1O[C@@H](O[C@@H]2[C@@H](CO)OC(O)(CO)[C@H]2O)[C@H](O)[C@@H](O)[C@H]1O (mixture of isomers) [lactulose],stool frequency and consistency,[1],more effective than placebo
C[C@H]1O[C@H](O[C@H]2[C@H](O)[C@@H](O)[C@@H](O[C@H]3[C@H](O)[C@@H](O)C(O)O[C@@H]3CO)O[C@@H]2CO)[C@H](O)[C@@H](O)[C@@H]1N[C@H]1C=C(CO)[C@@H](O)[C@H](O)[C@H]1O (stereo partly shown) [acarbose],oral dose absorbed,[2],About 35%
CN(C)C(=N)N=C(N)N [metformin],"patient's global impression: answer 'yes' to ""do you feel better now after treatment""",[3],at least 50 % of the time
"CCCCCNC(=N)N/N=C/c1c[nH]c2ccc(OC)cc12.O=C(O)/C=C\C(=O)O [tegaserod, 3-(5-methoxy-1H-indol-3-ylmethylene)-N-pentylcarbazimidamide hydrogen maleate]",global and individual symptoms,[4],effectively improves global and individual symptoms
